Here are results for ten molecules from paper PMC2923493 (Tetrahedron, 2010).

Assay [1] has as its target T1, chymotrypsin-like proteasome activity (Homo sapiens, UniProt P28074).
T1 sequence (P28074 60-263): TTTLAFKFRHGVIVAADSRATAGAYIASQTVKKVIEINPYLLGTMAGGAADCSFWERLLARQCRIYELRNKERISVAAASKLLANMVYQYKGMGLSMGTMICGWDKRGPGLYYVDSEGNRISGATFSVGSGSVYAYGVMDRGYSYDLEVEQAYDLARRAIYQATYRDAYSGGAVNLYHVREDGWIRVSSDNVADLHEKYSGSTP
Briefly: Proteasome inhibition assay. The class given is biochemical.

Assay [2] deals with HT-29 human colon cancer cells. In words: Cytotoxicity assay. Type of assay: cell-based. The note with it: HT-29 cells, three days.
In assay [3] the test system is LNCaP, HT-29, MCF-7 and MDA-MB 435 human cancer cells. In words: In vivo hollow fiber assay. The note with it: highest dose tested (20 mg/kg), mice, intraperitoneal, all cell lines.
Assay [4] deals with human SPC-A1 cell. The note with it: cited from earlier work.
For assay [5], the system named is human SPC-A1 cell. The note with it: cited from earlier work. This is another data set of the same source.
[6] abbreviates: read-out: Proteasome Inhibition IC50, Suc-LLVY-AMC 10 μM.

Read-outs that look alike come from different tables or passages of the source.

One may read the IC50 as the concentration that inhibits the measured activity by half. Turning to `O=C1c2c(O)cc(O)cc2O[C@H](c2ccc(O)cc2)[C@H]1c1c(O)cc(O)c2c(=O)cc(-c3ccc(O)c(O)c3)oc12` [Compound 8, morelloflavone], the IC50 in assay [1] came out at 1.3 µM. Besides, the “Cytotoxicity ED50” value in assay [2] is more than 10 µM.
On to `CC(C)=CCc1c2c(c(O)c3c1O[C@]14C(=C[C@H]5C[C@@H]1C(C)(C)O[C@@]4(C/C=C(/C)C(=O)O)C5=O)C3=O)CC(O)C(C)(C)O2` (stereo partly drawn) [Compound 6, (5R,7S,10aS,27S)-11,12-dihydro-12-hydroxymorellic acid], for which the “Cytotoxicity ED50” value in assay [2] was found to be 2.9 µM.
Take `C=C(C)C(O)Cc1c2c(c(O)c3c1O[C@]14C(=C[C@H]5C[C@@H]1C(C)(C)O[C@@]4(C/C=C(\C)C(=O)O)C5=O)C3=O)C=CC(C)(C)O2` (some centres unmarked) [Compound 5, isogaudichaudiic acid E]: the IC50 in assay [1] (setting [6]) was more than 10 µM. Also, in assay [2], the “Cytotoxicity ED50” value is 2.6 µM.
For the molecule `CC(C)=CCc1c2c(c(O)c3c1O[C@]14C(=C[C@@H]5C[C@H]1C(C)(C)O[C@@]4(C/C=C(/C)C(=O)O)C5=O)C3=O)C=CC(C)(C)O2` [Compound 10, morellic acid], the IC50 in assay [1] (setting [6]) was more than 10 µM. The “Cytotoxicity ED50” value in assay [2] was found to be 0.36 µM. In addition, the “Activity in in vivo hollow fiber assay” value in assay [3] was “inactive”.
Take `CC1(C)Oc2c(cc3c(=O)c4c(O)cc(O)cc4oc3c2O)[C@H](O)[C@H]1O` [Compound 2, (3R,4S)-3,4,7,9,12-pentahydroxy-2,2-dimethyl-3,4-dihydropyrano[3,2-b]xanthen-6(2H)-one]: the “Cytotoxicity ED50” value in assay [2] is more than 10 µM.
`O=C1c2c(O)cc(O)cc2O[C@@H](c2ccc(O)cc2)[C@@H]1c1c(O)cc(O)c2c(=O)cc(-c3ccc(O)cc3)oc12` [Compound 9, talbotaflavone]: in assay [1] (setting [6]), the IC50 worked out at 4.4 µM.
As to `CC(C)=CCC[C@]1(C)C=Cc2c(O)c3c(c(CC=C(C)C)c2O1)O[C@]12C(=C[C@@H]4C[C@H]1C(C)(C)O[C@@]2(C/C=C(/C)C(=O)O)C4=O)C3=O` [gambogic acid], the “Inhibition of SPC-A1 cell growth in vitro” value in assay [4] is listed as “inhibited”. In assay [5], the “Inhibition of SPC-A1 cell growth in vivo” value is on record as “inhibited”.
For isogaudichaudiic acid B [Compound 7], in assay [2], the “Cytotoxicity ED50” value is more than 10 µM.
Take `CO[C@H]1[C@H]2C(=O)c3c(O)c4c(c(CC=C(C)C)c3O[C@@]23[C@@H]2C[C@H]1C(=O)[C@]3(C/C=C(/C)C(=O)O)OC2(C)C)OC(C)(C)C=C4` [Compound 3, isomoreollic acid]: in assay [1] (setting [6]), the IC50 was more than 10 µM. Besides, in assay [2], the “Cytotoxicity ED50” value is 1.9 µM.
On to `CC(C)=CCc1c(O)c(CC=C(C)C)c2c(c1O)C(=O)C1=C[C@H]3C[C@@H]4C(C)(C)O[C@@](C/C=C(/C)C(=O)O)(C3=O)[C@@]14O2` [Compound 4, isogaudichaudiic acid], for which the IC50 in assay [1] (setting [6]) was more than 10 µM. In addition, in assay [2], the “Cytotoxicity ED50” value stood at 3.2 µM.
